{"source": "ChEMBL document CHEMBL3507680", "about": "“University of Dundee, Gates Library screen for HepG2 cell viability”", "data": [{"assay": "Human HepG2 cell viability assay in 384 well format", "format": "toxicity, cell-based", "design": "dose 125 nL, time 70.5 hour; cytotoxicity at 70.5 h: concentration not given beside the values", "settings": "HepG2 cells, read-out: Inhibition", "units": {"cytotoxicity at 70.5 h": "%"}, "values": [{"smiles": "O=C(NC[C@]1(O)CN(Cc2ncccc2F)C[C@H]1O)c1cc[nH]n1", "cytotoxicity at 70.5 h": 21.3}, {"smiles": "COc1ccc(NC(=O)CCC2CCCN(S(=O)(=O)C3CC3)C2)cc1Cl", "note": "(stereo unspecified)", "cytotoxicity at 70.5 h": 5.12}, {"smiles": "CN(C)c1cc2c(nn1)CCN(C(=O)c1cc3ccccc3o1)C2", "cytotoxicity at 70.5 h": -11.3}, {"smiles": "O=C1CCC(C(=O)NCc2nncn2-c2ccccc2)CN1", "note": "(stereo unspecified)", "cytotoxicity at 70.5 h": -12.6}, {"smiles": "CC1(C)CNC(=O)c2nc(CCN3CCOCC3)[nH]c2C1", "cytotoxicity at 70.5 h": -7.47}, {"smiles": "CSCCC(=O)N1CCN(CC(O)C(C)(C)C)CC1", "note": "(stereo unspecified)", "cytotoxicity at 70.5 h": 24.8}, {"smiles": "CCc1nc(CCNc2ncccc2S(N)(=O)=O)sc1C", "cytotoxicity at 70.5 h": 1.18}, {"smiles": "CCN(CC)C(=O)CNC(=O)c1ccc(-c2ccsc2)nc1C", "cytotoxicity at 70.5 h": 59.9}, {"smiles": "COc1ccc(-c2cc(C3CCCNC3)ccn2)cc1", "note": "(stereo unspecified)", "cytotoxicity at 70.5 h": -12.4}, {"smiles": "C[C@@H](NC(=O)c1ccc(Cl)cc1)c1onc(-c2cccnc2)c1C(=O)O", "cytotoxicity at 70.5 h": -6}, {"smiles": "CN1CCN2CCN(C(=O)c3cnn4cc(CCO)cnc34)CC2C1", "note": "(stereo unspecified)", "cytotoxicity at 70.5 h": -8.48}, {"smiles": "CCC(Nc1nccc(C2CCCC2)n1)c1ccncc1", "note": "(stereo unspecified)", "cytotoxicity at 70.5 h": 3.69}, {"smiles": "Cc1cccc(N2CCC3(CCCN3Cc3cnn(C)c3C)CC2)n1", "cytotoxicity at 70.5 h": 2.08}, {"smiles": "CC(C)(C)c1n[nH]c(C2CN(Cc3nnc(C4CCC4)o3)CCO2)n1", "note": "(stereo unspecified)", "cytotoxicity at 70.5 h": -2.38}, {"smiles": "COC(CNC(=O)c1ccoc1)c1cccc(Cl)c1", "note": "(stereo unspecified)", "cytotoxicity at 70.5 h": -5.07}, {"smiles": "COc1nn(C)cc1C(=O)N1CCC(c2nnc(C3CC3)o2)CC1", "cytotoxicity at 70.5 h": -1.01}, {"smiles": "COCCN1Cc2ccccc2C2(CCN(C(=O)c3ccco3)CC2)C1", "cytotoxicity at 70.5 h": 1.21}, {"smiles": "Cc1nc(C)c(CC(=O)N2CCCN(CC3CC3)C(C(C)C)C2)c(=O)[nH]1", "note": "(stereo unspecified)", "cytotoxicity at 70.5 h": 0.531}, {"smiles": "CC(C)[C@@H]1CN(Cc2ccccc2C#N)C[C@H]1N(C)C", "cytotoxicity at 70.5 h": 31.1}, {"smiles": "COc1ccc(-c2cnc(CN3CCCC3CO)o2)cc1", "note": "(stereo unspecified)", "cytotoxicity at 70.5 h": 7.93}, {"smiles": "N#Cc1cccc(S(=O)(=O)CCN2CCOC2=O)c1", "cytotoxicity at 70.5 h": -8.07}, {"smiles": "CCNC(=O)[C@@H]1C[C@@H](NC(=O)c2ccc(C)cc2O)CN1CCCSC", "cytotoxicity at 70.5 h": -3.38}, {"smiles": "Cc1ccc(CS(=O)(=O)NCc2ccco2)cc1", "cytotoxicity at 70.5 h": -4.19}, {"smiles": "CC(NCc1cccc(S(=O)(=O)N(C)C)c1)c1cccnc1", "note": "(stereo unspecified)", "cytotoxicity at 70.5 h": -3.39}, {"smiles": "Cc1ncsc1CN1CCO[C@H]2[C@H](Oc3ccccn3)CC[C@@H]21", "cytotoxicity at 70.5 h": -1.48}, {"smiles": "O=C(NCCn1ccnc1)c1csc(Br)c1", "cytotoxicity at 70.5 h": 16.5}, {"smiles": "CC1CN(C(=O)c2ccnc(-n3cncn3)c2)c2ccccc2S1", "note": "(stereo unspecified)", "cytotoxicity at 70.5 h": -0.177}, {"smiles": "CNS(=O)(=O)CCCN1CCCC1c1noc(C2CC2)n1", "note": "(stereo unspecified)", "cytotoxicity at 70.5 h": -6.19}, {"smiles": "COC(=O)[C@@H]1C[C@@H](O)CN1Cc1ccn(-c2ccc(F)cc2)n1", "cytotoxicity at 70.5 h": -10.3}, {"smiles": "Cc1ccc2nc(C)cc(C(=O)N[C@H]3COC[C@@H]3N3CCOCC3)c2c1", "cytotoxicity at 70.5 h": -6.73}, {"smiles": "CCN1CCC(CC(=O)NCC(O)c2cccc(OC)c2)CC1", "note": "(stereo unspecified)", "cytotoxicity at 70.5 h": -6.22}, {"smiles": "COc1ccc(-n2cnnc2SCC(=O)N(C)C(C)C)cn1", "cytotoxicity at 70.5 h": -6.69}, {"smiles": "CCc1ccc(C(CNC(=O)c2c(C)noc2C)N(C)C)cc1", "note": "(stereo unspecified)", "cytotoxicity at 70.5 h": 5.58}, {"smiles": "COc1c(F)cc(CN2CCC3(CC2)CN(C)C(=O)O3)cc1Cl", "cytotoxicity at 70.5 h": -7.54}, {"smiles": "Cc1ccccc1N1CCN(C(=O)CSc2ccncc2)CC1=O", "cytotoxicity at 70.5 h": -8.48}, {"smiles": "CCS(=O)(=O)CC(=O)NC(c1ccccc1)C1CCCCC1", "note": "(stereo unspecified)", "cytotoxicity at 70.5 h": 2.89}, {"smiles": "CCC1CN(c2cnn(C)c(=O)c2Cl)CCO1", "note": "(stereo unspecified)", "cytotoxicity at 70.5 h": 5.82}, {"smiles": "Cc1nn(C)c2nc(N(Cc3cnn(C)c3)C3CCCCC3)sc12", "cytotoxicity at 70.5 h": 7.12}, {"smiles": "FC(F)(F)COCCN1CCc2cncnc2C1", "cytotoxicity at 70.5 h": -2.38}, {"smiles": "OC1CCN([C@@H]2CCN(c3nc(-c4ccccc4)no3)C[C@H]2O)CC1", "cytotoxicity at 70.5 h": -1.33}, {"smiles": "Cc1cccc(CN2CCn3c(C(=O)N(C)C)cnc3C2)c1", "cytotoxicity at 70.5 h": -4.36}, {"smiles": "Cc1cc(Nc2ccc(F)cn2)cc(C2CCCN2)n1", "note": "(stereo unspecified)", "cytotoxicity at 70.5 h": -7.05}, {"smiles": "CN(C)C(=O)N1CCN(C(=O)c2ccn3ccnc3c2)CC1", "cytotoxicity at 70.5 h": -3.58}, {"smiles": "Cc1ccccc1C1(CN)CCCCC1", "cytotoxicity at 70.5 h": 10.6}, {"smiles": "CCNCc1ccc(OCc2ccc3c(c2)OCCO3)cc1", "cytotoxicity at 70.5 h": 22.5}, {"smiles": "COC(=O)CC(NC(=O)c1ccccc1OC)c1cccs1", "note": "(stereo unspecified)", "cytotoxicity at 70.5 h": 5.97}]}]}
